# Laboratory results from patent US11090351B2, “Whitening agent” (KAO CORPORATION, priority 2016, dated 2021).
# Like-named read-outs stand apart in the source and are kept apart here.
# How the values were obtained:
# B16 melanoma cells [1] = assay: Cytotoxicity test (MTT assay), relative cell survival rate; assay type: cell-based
# Description: (§1) B16 melanoma cells (DS pharma Biomedical) were used as skin melanocytes. The B16 melanoma cells were cultured in a CO2 incubator (37° C., 5% CO2) in 10 cm dishes containing the DMEM medium supplemented with 10% FBS. A cell suspension at 5.0×10^4 cells/mL was prepared from the cultured cells. 998 μL aliquots of the cell suspension were dispensed into 24 well plates and cultured in a CO2 incubator (37° C., 5% CO2) overnight. Subsequently, 2 μL of the DMSO solution of the methanol extract from Syzygium polyanthum prepared in Production Example 3 was added to each well (the final concentrations of the extract: 25 and 50 μg/mL) and the mixtures were further cultured for 72 hours. Arbutin (730 μM) was used instead of the extract as a positive control. DMSO was used as control.
# The MTT assay solution was prepared by dissolving 50 mg of Thiazolyl Blue Tetrazolium Bromide (SIGMA) in 10 mL of PBS (−). 50 μL of the MTT assay solution was added to each culture prepared in (1) and reacted for 4 hours. Then, 1 mL of isopropanol for MTT was added to each culture and the plate was covered with aluminum foil and allowed for reaction at room temperature for 2 hours for the reaction. After the reaction, the total amount was collected and centrifuged (1.45×10^3 rpm, 1 min), then 150 μL each of the supernatants was transferred into a 96 well plate, and the absorbance was measured at 590 nm. The relative cell survival rate (cytotoxicity) was calculated by determining the relative value to the control.
# (§2) The assay for tyrosinase activity was conducted in a procedure similar to that in Example 1 (3) using Compounds 1-3 as samples. In the tyrosinase activity assay, the final concentrations of each compound were adjusted to 100, 50, 25, and 12.5 mM and IC50 was calculated. Moreover, tests for melanogenesis inhibiting activity and for cytotoxicity were conducted in procedures similar to those in Example 2. The relative amount of extracellular melanin and the relative cell survival rate of skin melanocytes to which Compounds 1-3 were added were measured. The result of the tyrosinase activity assay is illustrated in Table 5 and the results of the measurements of the relative amount of extracellular melanin and the relative cell survival rate are illustrated in Table 6.
# B16 melanoma cells [2] = assay: Inhibition of melanogenesis in skin melanocytes (relative amount of extracellular melanin); assay type: cell-based; conditions: Mus musculus
# Description: as §1
# The supernatants of the cultures prepared in (1) were collected, 200 μL each was transferred into a 96 well plate, and then the absorbance was measured at 510 nm. The relative amount of extracellular melanin was calculated by determining the relative value to the control.
# as §2
# mushroom tyrosinase = assay: Tyrosinase activity assay (methanol extract, fractions, Compounds 1-3); assay type: biochemical; conditions: Table 5
# Description: 1 mg of methanol extract from Syzygium polyanthum prepared in Production Example 3 was dissolved in 50 μL of DMSO and 550 μL of a buffer (50 mM solution of disodium hydrogen phosphate, pH 6.5). This extract solution was transferred in a 96 well plate so that the final concentrations of extract became 500, 250, 125, 62.5, 31.25, 15.625, 7.8125 and 0 μg/mL and diluted to 60 μL with the buffer. 30 μL of the tyrosinase solution (a buffered solution of 1 mg/16 mL mushroom tyrosinase (SIGMA), pH 6.5) and 110 μL of the substrate solution (2 mM L-tyrosine or 12 mM L-DOPA) were added to each well of the 96 well plate.
# Each fraction was dissolved in 600 μL of DMSO and added to 96-well plates to the final concentrations of 50, 25 and 12.5 μg/mL.
# In the tyrosinase activity assay, the final concentrations of each compound were adjusted to 100, 50, 25, and 12.5 mM and IC50 was calculated. […] The result of the tyrosinase activity assay is illustrated in Table 5 and the results of the measurements of the relative amount of extracellular melanin and the relative cell survival rate are illustrated in Table 6.
# [3] = substrate L-DOPA, read-out: IC50 (μM) DOPA
# [4] = substrate L-tyrosine, read-out: IC50 (μM) Tyrosine
Compound,"Cell Viability (%) (B16 melanoma cells [1]; 730 μM, 72 hours, MTT, relative to control, Table 3)","Cell Viability (%) (B16 melanoma cells [1]; 730 μM, Table 6)","activity at 730 µM (B16 melanoma cells [2]; 72 hours, relative to DMSO control, Table 3)",activity at 730 µM (B16 melanoma cells [2]; Table 6),IC50 (mushroom tyrosinase; [3]),IC50 (mushroom tyrosinase; [4]),Cell Viability (%) (B16 melanoma cells [1]; 100 μM),Cell Viability (%) (B16 melanoma cells [1]; 200 μM),activity at 100 µM (B16 melanoma cells [2]),activity at 200 µM (B16 melanoma cells [2]; 200 μM),Cell Viability (%) (B16 melanoma cells [1]; 25 μM),Cell Viability (%) (B16 melanoma cells [1]; 50 μM),activity at 25 µM (B16 melanoma cells [2]),activity at 50 µM (B16 melanoma cells [2]),Cell Viability (%) (B16 melanoma cells [1]; 75 μM),activity at 75 µM (B16 melanoma cells [2]; 75 μM)
"OC[C@H]1O[C@@H](Oc2ccc(O)cc2)[C@H](O)[C@@H](O)[C@@H]1O [Arbutin, reference compound]",99%,107.6%,21.3%,32.7%,–,–,–,–,–,–,–,–,–,–,–,–
"CCCCCC(=O)c1cc(O)c(C)c(O)c1O [Compound 1, 1-(2,3,5-Trihydroxy-4-methylphenyl)hexane-1-one]",–,–,–,–,291 µM,125 µM,73.3%,64.9%,78.2%,13.6%,–,–,–,–,–,–
"CCCCCCCC(=O)c1cc(O)c(C)c(O)c1O [Compound 2, 1-(2,3,5-Trihydroxy-4-methylphenyl)octane-1-one]",–,–,–,–,616 µM,481 µM,–,–,–,–,95.0%,87.4%,99%,13.5%,–,–
"CCCCC/C=C/CCC(=O)c1cc(O)c(C)c(O)c1O [Compound 3, (4E)-1-(2,3,5-Trihydroxy-4-methylphenyl)dec-4-en-1-one]",–,–,–,–,489 µM,84 µM,72.9%,–,11.4%,–,94.3%,99.8%,107%,27.2%,92.5%,9.7%
